Source: patent US8900644B2, “Oral care compositions containing compounds from magnolia and hops extracts” (Colgate-Palmolive Company, priority 2004, dated 2014)

What was measured:
Experiment in all cases: in vitro test Minimal Inhibitory Concentration (MIC)
Assay type in all cases: cell-based
P. gingivitis = system: P. gingivitis
Excerpt: (§1) For example, the oral compositions of the present invention are bactericidal against representative oral bacteria, such as S. mutans, F. nucleatum, V. parvula, A. naeslundii, and P. gingivitis as measured by the in vitro test Minimal Inhibitory Concentration (MIC). The oral composition of the present invention is applied to the oral surfaces in the oral cavity, and promotes overall oral health, including preventing plaque formation, caries formation, calculus formation, halitosis, gingivitis, and periodontitis, for example. For example, in an embodiment of the present invention, where an oral care composition comprises an orally acceptable delivery carrier and a safe and effective amount of the combination of an extract of hops and an extract of magnolia, it has been observed that the antibacterial activity is highly efficacious against both gram-positive and gram-negative bacteria.
(§2) It should be noted that any plant from the Magnoliaceae family is suitable for the present invention and may be used in alternate embodiments. Preferably such that the extract comprises an antimicrobially effective concentration of a compound selected from the group consisting of magnolol, honokiol, tetrahydromagnolol, tetrahydrohonokiol, and mixtures thereof.

F. nucleatum = system: F. nucleatum
Excerpt: as §1, §2

S. mutans = system: S. mutans
Excerpt: as §1, §2

A. naeslundii = system: A. naeslundii
Excerpt: as §1, §2

V. parvula = system: V. parvula
Excerpt: as §1, §2

Measured: bactericidal properties in Minimal Inhibitory Concentration (MIC) test

CCCc1ccc(O)c(-c2cc(CCC)ccc2O)c1 [tetrahydromagnolol]
bactericidal: P. gingivitis | F. nucleatum | S. mutans | A. naeslundii | V. parvula

CCCc1ccc(O)c(-c2ccc(O)c(CCC)c2)c1 [tetrahydrohonokiol]
bactericidal: P. gingivitis | F. nucleatum | S. mutans | A. naeslundii | V. parvula

C=CCc1ccc(O)c(-c2ccc(O)c(CC=C)c2)c1 [honokiol]
bactericidal: P. gingivitis | F. nucleatum | S. mutans | A. naeslundii | V. parvula

C=CCc1ccc(O)c(-c2cc(CC=C)ccc2O)c1 [magnolol]
bactericidal: P. gingivitis | F. nucleatum | S. mutans | A. naeslundii | V. parvula
